Assay results reported in patent publication US20230416227A1, “PLASMA KALLIKREIN INHIBITORS” (Merck Sharp & Dohme LLC, priority 2020, published 2023).

Legend:
Human plasma kallikrein = molecular target: T1, Human plasma kallikrein (Homo sapiens, UniProt P03952); experiment: Plasma Kallikrein Assay; format: biochemical; conditions: purified Human plasma kallikrein 0.5 nM, substrate Acetyl-K-P-R-AFC, pH 7.4
T1 construct: yields a heavy chain (371 amino acids) and a light chain (248 amino acids); purchased Enzyme Research Laboratories

human factor XIa = human factor XIa (Homo sapiens, UniProt P03951); experiment: Factor XIa Assay; format: biochemical; conditions: human factor XIa 0.04 nM, substrate GPR-AFC, 30 min pre-incubation at 25° C., pH 7.4; read-out: FXIa IC50
Sequence of human factor XIa (P03951 388-625 limits assumed): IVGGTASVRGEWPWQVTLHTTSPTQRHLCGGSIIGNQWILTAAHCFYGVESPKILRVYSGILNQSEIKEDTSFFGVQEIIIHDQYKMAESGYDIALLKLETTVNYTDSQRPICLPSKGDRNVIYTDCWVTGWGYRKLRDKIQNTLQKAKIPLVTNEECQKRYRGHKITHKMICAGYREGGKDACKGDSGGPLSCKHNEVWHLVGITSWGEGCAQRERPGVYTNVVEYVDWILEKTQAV
Sequence of human factor XIa (P03951 19-387 partner limits assumed): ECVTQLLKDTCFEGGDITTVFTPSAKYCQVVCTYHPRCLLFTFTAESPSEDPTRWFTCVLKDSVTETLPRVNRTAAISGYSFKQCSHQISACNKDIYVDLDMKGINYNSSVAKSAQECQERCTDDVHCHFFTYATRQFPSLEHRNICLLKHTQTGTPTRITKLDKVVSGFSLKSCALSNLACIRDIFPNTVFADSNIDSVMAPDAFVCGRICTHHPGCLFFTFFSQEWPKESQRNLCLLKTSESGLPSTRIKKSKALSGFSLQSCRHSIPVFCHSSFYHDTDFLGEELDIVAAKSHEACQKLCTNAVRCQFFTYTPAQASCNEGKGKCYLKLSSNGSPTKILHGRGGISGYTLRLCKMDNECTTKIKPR

T1 sequence (P03952 391-638 limits assumed): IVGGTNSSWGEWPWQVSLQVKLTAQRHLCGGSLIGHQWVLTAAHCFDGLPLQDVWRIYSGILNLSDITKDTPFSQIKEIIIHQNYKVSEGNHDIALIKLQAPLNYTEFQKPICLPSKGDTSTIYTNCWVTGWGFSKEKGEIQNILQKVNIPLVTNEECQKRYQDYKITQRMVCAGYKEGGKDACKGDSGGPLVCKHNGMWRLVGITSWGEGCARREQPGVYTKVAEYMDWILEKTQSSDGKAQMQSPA
T1 sequence (P03952 20-390 partner limits assumed): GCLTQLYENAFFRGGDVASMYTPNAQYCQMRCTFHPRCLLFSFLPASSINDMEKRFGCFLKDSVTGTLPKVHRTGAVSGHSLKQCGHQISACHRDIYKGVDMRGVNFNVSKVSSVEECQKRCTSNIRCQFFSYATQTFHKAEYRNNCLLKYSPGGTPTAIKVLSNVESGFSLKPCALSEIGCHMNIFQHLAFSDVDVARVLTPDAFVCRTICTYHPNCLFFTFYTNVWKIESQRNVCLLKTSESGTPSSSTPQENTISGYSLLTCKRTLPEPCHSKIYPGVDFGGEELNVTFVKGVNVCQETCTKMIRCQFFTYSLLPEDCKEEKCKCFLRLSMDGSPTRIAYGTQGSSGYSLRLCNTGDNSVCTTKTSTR

| SMILES | IC50 (Human plasma kallikrein) | IC50 (human factor XIa) |
| --- | --- | --- |
| O=C(Nc1cnn(Cc2cnc(N3C[C@H]4C[C@H]4[C@H]3CN3CC(O)(C(F)(F)F)C3)nc2)c1)c1cncc(-c2c(C(F)F)ccc(Cl)c2F)n1 [Example 155, 6-(3-Chloro-6-(difluoromethyl)-2-fluorophenyl)-N-(1-((2-((1R,2S,5S)-2-((3-hydroxy-3-(trifluoromethyl)azetidin-1-yl)methyl)-3-azabicyclo[3.1.0]hexan-3-yl)pyrimidin-5-yl)methyl)-1H-pyrazol-4-yl)pyrazine-2-carboxamide] | 1.8 nM | 3680 nM |
| CC(c1cnc(N2CC[C@H]2CN2CC[C@H](O)[C@@H]2C)nc1)n1cc(NC(=O)c2cncc(-c3c(C(F)F)ccc(Cl)c3F)n2)cn1 (stereo partly drawn) [Example 161, 6-(3-Chloro-6-(difluoromethyl)-2-fluorophenyl)-N-(1-(1-(2-((S)-2-(((2S,3S)-3-hydroxy-2-methylpyrrolidin-1-yl)methyl)azetidin-1-yl)pyrimidin-5-yl)ethyl)-1H-pyrazol-4-yl)pyrazine-2-carboxamide] | 2 nM | 9630 nM |
| CC(c1cnc(N2CC[C@H]2CN2C[C@@H](O)[C@H](O)C2)nc1)n1cc(NC(=O)c2cncc(-c3c(C(F)F)ccc(Cl)c3F)n2)cn1 (stereo partly drawn) [Example 168, 6-(3-Chloro-6-(difluoromethyl)-2-fluorophenyl)-N-(1-(1-(2-((S)-2-(((3R,4R)-3,4-dihydroxypyrrolidin-1-yl)methyl)azetidin-1-yl)pyrimidin-5-yl)ethyl)-1H-pyrazol-4-yl)pyrazine-2-carboxamide] | 2 nM | 6350 nM |
| CC(c1cnc(N2CC[C@H]2[C@@H](C)N2C[C@@H](O)[C@H](O)C2)nc1)n1cc(NC(=O)c2cncc(-c3c(C(F)F)ccc(Cl)c3F)n2)cn1 (stereo partly drawn) [Example 188, 6-(3-Chloro-6-(difluoromethyl)-2-fluorophenyl)-N-(1-(1-(2-((S)-2-((R)-1-((3R,4R)-3,4-dihydroxypyrrolidin-1-yl)ethyl)azetidin-1-yl)pyrimidin-5-yl)ethyl)-1H-pyrazol-4-yl)pyrazine-2-carboxamide] | 3.2 nM | 3330 nM |
| C[C@@H](c1cnc(N2C[C@@H]3C[C@@H]3[C@@H]2C#N)nc1)n1cc(NC(=O)c2cncc(-c3c(C(F)F)ccc(Cl)c3F)n2)cn1 [Example 199, 6-(3-chloro-6-(difluoromethyl)-2-fluorophenyl)-N-(1-((S)-1-(2-((1S,2R,5R)-2-cyano-3-azabicyclo[3.1.0]hexan-3-yl)pyrimidin-5-yl)ethyl)-1H-pyrazol-4-yl)pyrazine-2-carboxamide] | 1.5 nM | 4790 nM |
| NC(=O)c1cc(N2CCC2)ncc1Cn1cc(NC(=O)c2cncc(-c3c(C(F)F)ccc(Cl)c3F)n2)cn1 [Example 206, N-(1-((6-(Azetidin-1-yl)-4-carbamoylpyridin-3-yl)methyl)-1H-pyrazol-4-yl)-6-(3-chloro-6-(difluoromethyl)-2-fluorophenvl)pyrazine-2-carboxamide] | 24.4 nM | 820 nM |
| CS(=O)(=O)c1ccc(Cl)c(F)c1-c1cncc(C(=O)Nc2cnn(Cc3cnc(N4CCC4)nc3)c2)n1 [Example 207, N-(1-((2-(Azetidin-1-yl)pyrimidin-5-yl)methyl)-1H-pyrazol-4-yl)-6-(3-chloro-2-fluoro-6-(methylsulfonyl)phenyl)pyrazine-2-carboxamide] | 17.2 nM | 675 nM |
| COc1ccc(C(F)F)c(-c2cncc(C(=O)Nc3cnn(Cc4cnc(N5CCC5)nc4)c3)n2)c1F [Example 208, N-(1-((2-(Azetidin-1-yl)pyrimidin-5-yl)methyl)-1H-pyrazol-4-yl)-6-(6-(difluoromethyl)-2-fluoro-3-methoxyphenyl)pyrazine-2-carboxamide] | 33.9 nM | 827 nM |

Results, then the compound that gave them:

| IC50 (Human plasma kallikrein) | IC50 (human factor XIa) | SMILES |
| --- | --- | --- |
| 1 nM | 5190 nM | CC(c1cnc(N2CC[C@H]2CN2CC[C@H](O)C2)nc1)n1cc(NC(=O)c2cncc(-c3c(C(F)F)ccc(Cl)c3F)n2)cn1 (stereo partly drawn) [Example 162, 6-(3-Chloro-6-(difluoromethyl)-2-fluorophenyl)-N-(1-(1-(2-((S)-2-(((S)-3-hydroxypyrrolidin-1-yl)methyl)azetidin-1-yl)pyrimidin-5-yl)ethyl)-1H-pyrazol-4-yl)pyrazine-2-carboxamide] |
| 1.2 nM | 4850 nM | CC(c1cnc(N2CC[C@H]2CN2CC[C@@H](O)C2)nc1)n1cc(NC(=O)c2cncc(-c3c(C(F)F)ccc(Cl)c3F)n2)cn1 (stereo partly drawn) [Example 163, 6-(3-Chloro-6-(difluoromethyl)-2-fluorophenyl)-N-(1-(1-(2-((S)-2-(((R)-3-hydroxypyrrolidin-1-yl)methyl)azetidin-1-yl)pyrimidin-5-yl)ethyl)-1H-pyrazol-4-yl)pyrazine-2-carboxamide] |
| 1.4 nM | 4270 nM | CO[C@H]1CN(C[C@@H]2CCN2c2ncc(C(C)n3cc(NC(=O)c4cncc(-c5c(C(F)F)ccc(Cl)c5F)n4)cn3)cn2)C[C@@H]1O (stereo partly drawn) [Example 165, 6-(3-Chloro-6-(difluoromethyl)-2-fluorophenyl)-N-(1-(1-(2-((S)-2-(((3S,4S)-3-hydroxy-4-methoxypyrrolidin-1-yl)methyl)azetidin-1-yl)pyrimidin-5-yl)ethyl)-1H-pyrazol-4-yl)pyrazine-2-carboxamide] |
| 0.7 nM | 5770 nM | CC(c1cnc(N2CC[C@H]2CN2CCC(C)(O)C2)nc1)n1cc(NC(=O)c2cncc(-c3c(C(F)F)ccc(Cl)c3F)n2)cn1 (stereo partly drawn) [Example 166, 6-(3-Chloro-6-(difluoromethyl)-2-fluorophenyl)-N-(1-(1-(2-((2S)-2-((3-hydroxy-3-methylpyrrolidin-1-yl)methyl)azetidin-1-yl)pyrimidin-5-yl)ethyl)-1H-pyrazol-4-yl)pyrazine-2-carboxamide] |
| 1 nM | 5820 nM | CC(c1cnc(N2CC[C@H]2CN2C[C@@H](O)[C@@H](O)C2)nc1)n1cc(NC(=O)c2cncc(-c3c(C(F)F)ccc(Cl)c3F)n2)cn1 (stereo partly drawn) [Example 167, 6-(3-Chloro-6-(difluoromethyl)-2-fluorophenyl)-N-(1-(1-(2-((S)-2-(((3R,4S)-3,4-dihydroxypyrrolidin-1-yl)methyl)azetidin-1-yl)pyrimidin-5-yl)ethyl)-1H-pyrazol-4-yl)pyrazine-2-carboxamide] |
| 1.5 nM | 9180 nM | CC(c1cnc(N2CC[C@H]2CN2C[C@@H](O)[C@H](F)C2)nc1)n1cc(NC(=O)c2cncc(-c3c(C(F)F)ccc(Cl)c3F)n2)cn1 (stereo partly drawn) [Example 169, 6-(3-Chloro-6-(difluoromethyl)-2-fluorophenyl)-N-(1-(1-(2-((S)-2-(((3R,4R)-3-fluoro-4-hydroxypyrrolidin-1-yl)methyl)azetidin-1-yl)pyrimidin-5-yl)ethyl)-1H-pyrazol-4-yl)pyrazine-2-carboxamide] |
| 1 nM | 8920 nM | CC(c1cnc(N2CC[C@H]2CN2CC(O)(C(C)C)C2)nc1)n1cc(NC(=O)c2cncc(-c3c(C(F)F)ccc(Cl)c3F)n2)cn1 (stereo partly drawn) [Example 173, 6-(3-Chloro-6-(difluoromethyl)-2-fluorophenyl)-N-(1-(1-(2-((S)-2-((3-hydroxy-3-isopropylazetidin-1-yl)methyl)azetidin-1-yl)pyrimidin-5-yl)ethyl)-1H-pyrazol-4-yl)pyrazine-2-carboxamide] |
| 0.6 nM | 5080 nM | CC(c1cnc(N2CC[C@H]2CN2CC(C(C)(C)O)C2)nc1)n1cc(NC(=O)c2cncc(-c3c(C(F)F)ccc(Cl)c3F)n2)cn1 (stereo partly drawn) [Example 175, 6-(3-Chloro-6-(difluoromethyl)-2-fluorophenyl)-N-(1-(1-(2-((S)-2-((3-(2-hydroxypropan-2-yl)azetidin-1-yl)methyl)azetidin-1-yl)pyrimidin-5-yl)ethyl)-1H-pyrazol-4-yl)pyrazine-2-carboxamide] |
| 0.7 nM | 9430 nM | CC(c1cnc(N2CC[C@H]2CN2CCC(O)CC2)nc1)n1cc(NC(=O)c2cncc(-c3c(C(F)F)ccc(Cl)c3F)n2)cn1 (stereo partly drawn) [Example 179, 6-(3-Chloro-6-(difluoromethyl)-2-fluorophenyl)-N-(1-(1-(2-((S)-2-((4-hydroxypiperidin-1-yl)methyl)azetidin-1-yl)pyrimidin-5-yl)ethyl)-1H-pyrazol-4-yl)pyrazine-2-carboxamide] |
| 1 nM | 3330 nM | CC(c1cnc(N2CC[C@H]2[C@@H](C)N2C[C@@H](O)[C@@H](O)C2)nc1)n1cc(NC(=O)c2cncc(-c3c(C(F)F)ccc(Cl)c3F)n2)cn1 (stereo partly drawn) [Example 187, 6-(3-Chloro-6-(difluoromethyl)-2-fluorophenyl)-N-(1-(1-(2-((S)-2-((R)-1-((3R,4S)-3,4-dihydroxypyrrolidin-1-yl)ethyl)azetidin-1-yl)pyrimidin-5-yl)ethyl)-1H-pyrazol-4-yl)pyrazine-2-carboxamide] |
